Source: US20130178493A1, “USE OF 14,15-DIHYDRO-20,21-DINOREBURNAMENIN-14-OL FOR THE TREATMENT AND/OR PREVENTION OF SERIOUS DEPRESSION AND SLEEP/WAKING CYCLE DISORDERS” (BIOCORTECH, priority 2004, published 2013)

Legend:
[1] = system: mice; details: mouse, in vivo, iv
Procedure: Acute toxicity is determined on batches of 10 male and female mice, weighing from 20 to 22 g, fasting since the previous evening.
The product is administered intravenously, in solution in physiological saline solution, to which a few drops of hydrochloric acid have been added (products to be tested are then in hydrochloric solution).
Mortality is recorded daily for one week. Values of the lethal doses 50 (LD 50) were determined using the method given by Lichfield J. T. and Wilcoxon F. (J. Pharm. Exp. Therap. 96:99, 1949).

[2] = system: immunopositive neurones for TH in LC; test: Immunocytochemistry of tyrosine hydroxylase immunopositive neurones in locus caeruleus after IP injection; assay type: in vivo, Balb/c mice
Procedure: (§1) The anatomical data presented in table 1 below were obtained three days after a single injection or after a sequential treatment of five injections at a rate of one injection every three days. Immunopositive cells for tyrosine hydroxylase (TH) and fibres containing noradrenaline were identified by immunocytochemistry in the examined brain areas. Sleep records were made on a group of ten Balb/c mice. The electroencephalogram for each animal was recorded continuously for five days for acquisition of basal data about the wake-sleep cycle. Five animals were then treated by five IP injections every three days starting from day 5 until day 17 of the experiment. The other five animals were injected with the excipient at the same time After the last injection, all mice were deprived of sleep for 6 hours and records went on for another two consecutive days to measure the total REM sleep recovery. The given BC19 dose is 20 mg/kg for each injection, in all these experiments.

[3] = system: cells expressing hypocretine in the hypothalamus; test: Number of hypocretine-expressing neurones in hypothalamus after IP injection; assay type: in vivo, Balb/c mice
[4] = system: fibres containing noradrenaline in the prefrontal cortex; test: Density of noradrenaline-containing fibres in prefrontal cortex after sequential treatment; assay type: in vivo, Balb/c mice
Procedure: as §1

[5] = system: Balb/c mice; test: REM sleep recovery after sleep deprivation (electroencephalogram records); assay type: in vivo
Procedure: as §1

[6] = sacrifice 3 days after a single IP injection (20 mg/kg), Balb/c mice

OC1CC2CCCN3CCc4c(n1c1ccccc41)C23 (racemic) [BC19, 14,15-dihydro 20,21-dinoreburnamenin14-ol]
Acute toxicity (mortality, LD 50) [1]: did not demonstrate any toxicity
activity at 20 mg/kg ([2]; Mus musculus, 72 h, sacrifice 3 days after a single IP injection (20 mg/kg), Balb/c mice, read-out: Total number of immunopositive neurones for TH in LC, % of controls): 135%
Effect on noradrenergic phenotype in locus caeruleus (in words) ([2]; injected into Balb/c mice): restoring the noradrenergic phenotype in a significant population of locus caeruleus
Total number of immunopositive neurones for TH in LC [2, 6]: 1228 ± 24
Effect on hypocretine phenotype in neurones of the hypothalamus (in words) ([3]; injected into Balb/c mice): restoring the hypocretine phenotype in a sub-population of neurones of the hypothalamus
Number of neurones in the posterior third of the group of cells expressing hypocretine in the hypothalamus [3, 6]: 671 ± 24
Number of neurones in the posterior third of the group of cells expressing hypocretine in the hypothalamus, % of controls [3, 6]: (121 ± 4%)
activity at 20 mg/kg ([4]; Mus musculus, 72 h, sequential treatment: five IP injections, one every three days, 20 mg/kg, Balb/c mice, read-out: Density of fibres containing noradrenaline in the prefrontal cortex, % of controls): 156%
Effect on noradrenergic innervation in the prefrontal cortex (in words) ([4]; injected into Balb/c mice): restoring noradrenergic innervation in the prefrontal cortex
Density of fibres containing noradrenaline in the prefrontal cortex ([4]; sequential treatment: five IP injections, one every three days, 20 mg/kg, Balb/c mice): 0.050 ± 0.003 μm/μm^2
activity at 20 mg/kg ([5]; Mus musculus, deprived mice (6 hours sleep deprivation), after five IP injections every three days, 20 mg/kg, Balb/c mice, read-out: Duration of REM sleep during the recovery period, % of controls without sleep deprivation): 151 ± 11%
Duration of REM sleep during the recovery period ([5]; deprived mice (6 hours sleep deprivation), after five IP injections every three days, 20 mg/kg, Balb/c mice): 110 ± 8 mn
Effect on recovery of REM sleep after sleep privation (in words) ([5]; injected into Balb/c mice): reversing the inability of these consanguine mice to recover REM
